Measured values taken from ChEMBL document CHEMBL1149357, “Propionylpiperazines as human melanocortin-4 receptor ligands” (Bioorg Med Chem Lett, 2006).

Legend:
[1] = target: T1, Melanocortin receptor 4 (Homo sapiens, UniProt P32245); assay: Displacement of [125I]NDP-MSH from human MC4R stably expressed in HEK293 cells; type: cell-based
[2] = target: Melanocyte-stimulating hormone receptor (Homo sapiens, UniProt Q01726); assay: Displacement of [125I]NDP-MSH from human MC1R stably expressed in HEK293 cells; type: cell-based
[3] = target: Melanocortin receptor 3 (Homo sapiens, UniProt P41968); assay: Displacement of [125I]NDP-MSH from human MC3R stably expressed in HEK293 cells; type: cell-based
[4] = target: Melanocortin receptor 5 (Homo sapiens, UniProt P33032); assay: Displacement of [125I]NDP-MSH from human MC5R stably expressed in HEK293 cells; type: cell-based
[5] = target: T1, Melanocortin receptor 4; assay: Activity at MC4R assessed as inhibition of alpha MSH-stimulated cAMP production in HEK293 cells; type: functional, cell-based
[6] = Clearance in mouse at 5 mg/kg, iv; type: ADME, organism-based; set-up: dose 5 mg/kg, route intravenous; settings: in vivo
[7] = Volume of distribution in mouse at 5 mg/kg, iv; type: ADME, organism-based; set-up: dose 5 mg/kg, route intravenous; settings: in vivo, read-out: Vdss
[8] = Half life in mouse at 5 mg/kg, iv; type: ADME, organism-based; set-up: dose 5 mg/kg, route intravenous; settings: in vivo
[9] = system: Mus musculus; assay: AUC in mouse at 5 mg/kg, iv; type: ADME, organism-based, Plasma; set-up: dose 5 mg/kg, route intravenous; settings: in vivo
[10] = Drug level in mouse brain at 5 mg/kg, iv after 1 hr; type: ADME, organism-based; set-up: dose 5 mg/kg, route intravenous; settings: read-out: Drug uptake
[11] = Drug level in mouse brain at 5 mg/kg, iv after 4 hrs; type: ADME, organism-based; set-up: dose 5 mg/kg, route intravenous; settings: read-out: Drug uptake
[12] = Cmax in mouse at 10 mg/kg, po; type: ADME, organism-based; set-up: dose 10 mg/kg, route oral; settings: in vivo
[13] = Tmax in mouse at 10 mg/kg, po; type: ADME, organism-based; set-up: dose 10 mg/kg, route oral; settings: in vivo
[14] = system: Mus musculus; assay: AUC in mouse at 10 mg/kg, po; type: ADME, organism-based, Plasma; set-up: dose 10 mg/kg, route oral; settings: in vivo
[15] = Bioavailability in mouse at 10 mg/kg, po; type: ADME, organism-based; settings: in vivo
[16] = Lipophilicity, log D of the compound; type: physicochemical; settings: octanol/water

T1 sequence (P32245 whole entry): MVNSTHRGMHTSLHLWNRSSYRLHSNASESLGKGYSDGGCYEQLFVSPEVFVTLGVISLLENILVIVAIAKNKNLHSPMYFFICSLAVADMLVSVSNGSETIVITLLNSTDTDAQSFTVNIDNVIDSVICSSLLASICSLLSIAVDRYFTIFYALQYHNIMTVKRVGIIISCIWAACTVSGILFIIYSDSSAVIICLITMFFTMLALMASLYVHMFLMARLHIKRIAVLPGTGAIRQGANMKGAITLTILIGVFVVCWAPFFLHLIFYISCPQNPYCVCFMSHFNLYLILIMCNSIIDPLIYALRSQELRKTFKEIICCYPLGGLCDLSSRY
Chain of Melanocortin receptor 3 (P41968 whole entry): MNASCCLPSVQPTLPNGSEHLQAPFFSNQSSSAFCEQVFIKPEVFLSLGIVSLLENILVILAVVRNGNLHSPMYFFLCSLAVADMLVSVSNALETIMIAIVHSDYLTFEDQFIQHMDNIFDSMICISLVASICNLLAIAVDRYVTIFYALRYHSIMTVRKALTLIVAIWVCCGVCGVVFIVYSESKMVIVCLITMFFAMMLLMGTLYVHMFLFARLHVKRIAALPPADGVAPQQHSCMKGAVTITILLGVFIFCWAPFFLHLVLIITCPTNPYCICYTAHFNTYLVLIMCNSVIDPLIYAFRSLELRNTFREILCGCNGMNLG
Chain of Melanocortin receptor 5 (P33032 whole entry): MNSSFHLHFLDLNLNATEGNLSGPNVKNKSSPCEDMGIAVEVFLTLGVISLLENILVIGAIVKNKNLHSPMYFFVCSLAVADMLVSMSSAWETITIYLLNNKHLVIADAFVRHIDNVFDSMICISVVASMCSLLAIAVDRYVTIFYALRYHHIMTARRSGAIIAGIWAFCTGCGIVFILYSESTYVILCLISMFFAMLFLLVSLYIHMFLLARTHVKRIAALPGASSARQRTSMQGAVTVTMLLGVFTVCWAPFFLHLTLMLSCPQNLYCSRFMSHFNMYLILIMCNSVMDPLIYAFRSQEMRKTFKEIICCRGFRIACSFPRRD

| Compound | Ki [1] [nM] | other results |
| --- | --- | --- |
| CC(C)C[C@H](N)c1cc(C(F)(F)F)ccc1N1CCN(C(=O)C(C)Cc2ccc(Cl)c(Cl)c2)CC1 (stereo in doubt; 8q) | 1600 | – |
| COc1cc(CC(C)C(=O)N2CCN(c3ccc(C(F)(F)F)cc3[C@@H](N)CC(C)C)CC2)ccc1Cl (stereo not given in full) | 230 | – |
| CC(C)C[C@H](N)c1cc(C(F)(F)F)ccc1N1CCN(C(=O)[C@H](C)Cc2ccc(Cl)cc2)CC1 | 31 | – |
| CC(C)C[C@H](N)c1cc(C(F)(F)F)ccc1N1CCN(C(=O)COc2ccc(Cl)c(Cl)c2)CC1 | 2500 | – |
| CC(C)C[C@H](N)c1cc(C(F)(F)F)ccc1N1CCN(C(=O)C(C)Cc2ccc(Cl)cc2F)CC1 (stereo not given in full) | 60 | – |
| Cc1ccc(N2CCN(C(=O)[C@H](C)Cc3ccc(Cl)cc3Cl)CC2)c([C@@H](N)CC(C)C)c1 | 8.8 | – |
| CC(C)C[C@H](N)c1cc(C(F)(F)F)ccc1N1CCN(C(=O)COc2ccccc2)CC1 | > 10000 | – |
| CC(C)C[C@H](N)c1cc(C(F)(F)F)ccc1N1CCN(C(=O)CCC(=O)c2ccc(Cl)cc2)CC1 | 820 | – |
| CC(C)C[C@H](N)c1ccccc1N1CCN(C(=O)[C@H](C)Cc2ccc(Cl)cc2F)CC1 | 67 | – |
| COc1ccc(CC(C)C(=O)N2CCN(c3ccc(C(F)(F)F)cc3[C@@H](N)CC(C)C)CC2)cc1F (stereo not given in full) | 200 | – |
| CC(C)C[C@H](N)c1ccccc1N1CCN(C(=O)[C@H](C)Cc2ccc(Cl)cc2)CC1 | 80 | – |
| CC(C)C[C@H](N)c1cc(C(F)(F)F)ccc1N1CCN(C(=O)CSc2ccc(Cl)cc2Cl)CC1 | 1500 | – |
| CC(C)C[C@H](N)c1cc(C(F)(F)F)ccc1N1CCN(C(=O)[C@@H](C)Cc2ccc(Cl)cc2Cl)CC1 | 140 | – |
| CC(C)C[C@H](N)c1cc(C(F)(F)F)ccc1N1CCN(C(=O)C(C)Cc2ccc(Cl)cc2)CC1 (stereo not given in full) | 47 | – |
| CC(C)C[C@H](N)c1cc(C(F)(F)F)ccc1N1CCN(C(=O)C(C)Cc2cccc(Cl)c2)CC1 (stereo not given in full) | 920 | – |
| CC(C)C[C@H](N)c1cc(C(F)(F)F)ccc1N1CCN(C(=O)Cc2ccc(Cl)cc2Cl)CC1 | 2800 | – |
| Cc1cc(Cl)ccc1CC(C)C(=O)N1CCN(c2ccc(C(F)(F)F)cc2[C@@H](N)CC(C)C)CC1 (stereo not given in full) | 38 | – |

| Compound | Ki [1] [nM] | other results |
| --- | --- | --- |
| CC(C)C[C@H](N)c1cc(C(F)(F)F)ccc1N1CCN(C(=O)COc2ccc(Cl)cc2Cl)CC1 | 4200 | – |
| COc1cc(Cl)ccc1C[C@@H](C)C(=O)N1CCN(c2ccc(C(F)(F)F)cc2[C@@H](N)CC(C)C)CC1 | 6.5 | – |
| COc1cc(Cl)ccc1C[C@H](C)C(=O)N1CCN(c2ccc(C(F)(F)F)cc2[C@@H](N)CC(C)C)CC1 | 31 | – |
| CC(C)C[C@H](N)c1cc(C(F)(F)F)ccc1N1CCN(C(=O)Cn2cnc3ccccc32)CC1 | 2100 | – |
| COc1ccc(CC(C)C(=O)N2CCN(c3ccc(Cl)cc3[C@@H](N)CC(C)C)CC2)cc1 (stereo not given in full) | 160 | – |
| COc1cc(Cl)ccc1CC(C)C(=O)N1CCN(c2ccc(Cl)cc2[C@@H](N)CC(C)C)CC1 (stereo not given in full) | 9.1 | – |
| CC(C)C[C@H](N)c1cc(Cl)ccc1N1CCN(C(=O)C(C)Cc2ccc(Cl)cc2)CC1 (stereo not given in full) | 67 | – |
| CC(C)C[C@H](N)c1cc(C(F)(F)F)ccc1N1CCN(C(=O)[C@H](C)Cc2ccc(Cl)cc2Cl)CC1 | 26 | – |
| COc1cccc(CC(C)C(=O)N2CCN(c3ccc(C(F)(F)F)cc3[C@@H](N)CC(C)C)CC2)c1 (stereo not given in full) | 3100 | – |
| CCOc1cccc(CC(C)C(=O)N2CCN(c3ccc(C(F)(F)F)cc3[C@@H](N)CC(C)C)CC2)c1 (stereo not given in full) | 2200 | – |
| CC(C)C[C@H](N)c1cc(C(F)(F)F)ccc1N1CCN(C(=O)C(C)Cc2ccc(Cl)cc2O)CC1 (stereo not given in full) | 36 | – |
| CC(C)C[C@H](N)c1cc(C(F)(F)F)ccc1N1CCN(C(=O)CNc2ccccc2)CC1 | 3600 | – |
| COc1cc(Cl)ccc1CC(C)C(=O)N1CCN(c2ccc(C(F)(F)F)cc2[C@@H](N)CC(C)C)CC1 (stereo not given in full) | 14 | Activity [2]: 23%; Ki [3]: 320 nM; Ki [4]: 86 nM; IC50 [5]: 1700 nM; clearance [6]: 62.3 mL/min/kg; Vd [7]: 10.3 L/kg; half-life [8]: 1.9 h; AUC [9]: 1450 ng·h/mL; concentration at 1 h [10]: 735 ng/g; concentration at 4 h [11]: 122 ng/g; Cmax [12]: 99 ng/mL; Tmax [13]: 0.25 h; AUC [14]: 249 ng·h/mL; bioavailability [15]: 8.6%; logD [16]: > 4 |
| CC(C)C[C@H](N)c1cc(F)ccc1N1CCN(C(=O)C(C)Cc2ccc(Cl)cc2)CC1 (stereo not given in full) | 390 | – |
| CC(C)C[C@H](N)c1cc(C(F)(F)F)ccc1N1CCN(C(=O)COc2ccccc2Cl)CC1 | 4500 | – |
| COc1ccc(CC(C)C(=O)N2CCN(c3ccc(C(F)(F)F)cc3[C@@H](N)CC(C)C)CC2)cc1 (stereo not given in full) | 120 | – |

The next lines start with results.

| Ki [1] [nM] | Compound | other results |
| --- | --- | --- |
| 2600 | CC(C)C[C@H](N)c1cc(C(F)(F)F)ccc1N1CCN(C(=O)COc2cccc3ccccc23)CC1 | – |
| 4800 | CC(C)C[C@H](N)c1cc(C(F)(F)F)ccc1N1CCN(C(=O)CCNC2CCCCC2)CC1 | – |
| 4000 | Cc1ccc(OCC(=O)N2CCN(c3ccc(C(F)(F)F)cc3[C@@H](N)CC(C)C)CC2)c(C)c1 | – |
| 71 | Cc1cc(CC(C)C(=O)N2CCN(c3ccc(C(F)(F)F)cc3[C@@H](N)CC(C)C)CC2)ccc1Cl (stereo not given in full) | – |
| 20 | Cc1ccc(N2CCN(C(=O)[C@H](C)Cc3ccc(Cl)cc3F)CC2)c([C@@H](N)CC(C)C)c1 | – |
| 92 | Cc1ccc(CC(C)C(=O)N2CCN(c3ccc(C(F)(F)F)cc3[C@@H](N)CC(C)C)CC2)c(C)c1 (stereo not given in full) | – |
| 12 | Cc1cc(Cl)ccc1C[C@@H](C)C(=O)N1CCN(c2ccccc2[C@@H](N)CC(C)C)CC1 | – |
| 4600 | CC(C)C[C@H](N)c1cc(C(F)(F)F)ccc1N1CCN(C(=O)COc2ccc(O)cc2)CC1 | – |
| > 10000 | CC(C)C[C@H](N)c1cc(C(F)(F)F)ccc1N1CCN(C(=O)CCC(N)=O)CC1 | – |
| 4100 | CC(C)C[C@H](N)c1cc(C(F)(F)F)ccc1N1CCN(C(=O)CCCC2CCCCC2)CC1 | – |
| 1100 | CC(C)C[C@H](N)c1cc(C(F)(F)F)ccc1N1CCN(C(=O)CC(C)C(=O)c2ccc(Cl)cc2)CC1 (stereo not given in full) | – |
| 5.9 | Cc1ccc(N2CCN(C(=O)[C@H](C)Cc3ccc(Cl)cc3C)CC2)c([C@@H](N)CC(C)C)c1 | – |
| 5700 | CC(C)C[C@H](N)c1cc(C(F)(F)F)ccc1N1CCN(C(=O)CCC2CCCCC2)CC1 | – |
| 25 | Cc1ccc(N2CCN(C(=O)[C@H](C)Cc3ccc(Cl)cc3)CC2)c([C@@H](N)CC(C)C)c1 | Ki [2]: 3100 nM; Ki [3]: 1300 nM; Ki [4]: 1000 nM; IC50 [5]: 560 nM; clearance [6]: 33.3 mL/min/kg; Vd [7]: 10.2 L/kg; half-life [8]: 3.5 h; AUC [9]: 2560 ng·h/mL; concentration at 1 h [10]: 940 ng/g; concentration at 4 h [11]: 330 ng/g; Cmax [12]: 267 ng/mL; Tmax [13]: 0.5 h; AUC [14]: 1760 ng·h/mL; bioavailability [15]: 34.4%; logD [16]: 3 |
| 2000 | CC(C)C[C@H](N)c1cc(C(F)(F)F)ccc1N1CCN(C(=O)COc2ccc3ccccc3c2)CC1 | – |
| 3800 | COc1ccc(OCC(=O)N2CCN(c3ccc(C(F)(F)F)cc3[C@@H](N)CC(C)C)CC2)cc1 | – |
| > 10000 | CC(C)C[C@H](N)c1cc(C(F)(F)F)ccc1N1CCN(C(=O)CCC(=O)N(C)C)CC1 | – |
| 1700 | Cc1cc(Cl)ccc1C[C@@H](C)C(=O)N1CCN(c2ccccc2[C@H](N)CC(C)C)CC1 | – |
| 16 | CC(C)C[C@H](N)c1ccccc1N1CCN(C(=O)[C@H](C)Cc2ccc(Cl)cc2Cl)CC1 | – |
| 2900 | CC(C)C[C@H](N)c1cc(C(F)(F)F)ccc1N1CCN(C(=O)COc2ccc(Cl)cc2)CC1 | – |
| 120 | CC(C)C[C@H](N)c1cc(C(F)(F)F)ccc1N1CCN(C(=O)C(C)Cc2ccc(Cl)c(Cl)c2)CC1 (stereo in doubt; 8j) | – |
| 8.1 | COc1cc(Cl)ccc1C[C@@H](C)C(=O)N1CCN(c2ccc(C)cc2[C@@H](N)CC(C)C)CC1 | – |
| 4400 | Cc1ccc(OCC(=O)N2CCN(c3ccc(C(F)(F)F)cc3[C@@H](N)CC(C)C)CC2)cc1 | – |
| 2500 | CC(C)C[C@H](N)c1cc(C(F)(F)F)ccc1N1CCN(C(=O)COc2cccc(Cl)c2Cl)CC1 | – |
| 2600 | CC(C)C[C@H](N)c1cc(C(F)(F)F)ccc1N1CCN(C(=O)COc2cccc(Cl)c2)CC1 | – |
| 3100 | CC(C)C[C@H](N)c1cc(C(F)(F)F)ccc1N1CCN(C(=O)COc2ccc([N+](=O)[O-])cc2)CC1 | – |
| 240 | Cc1ccc(CC(C)C(=O)N2CCN(c3ccc(C(F)(F)F)cc3[C@@H](N)CC(C)C)CC2)cc1C (stereo not given in full) | – |
